Laboratory results taken from US10093973B2, “Polymerase compositions and methods” (LIFE TECHNOLOGIES CORPORATION, priority 2009, dated 2018).
Numbering of substitutions follows the chain as printed.

Assays:
[1] = tested on: ωdN4P and extendible AF546 primer:template duplex; test: Stopped-flow tpol measurement of Example 8; type: biochemical; settings: modified versus reference polymerase, ωdN4P 14 μM
Method: In this example, the tpol values of an exemplary modified polymerase comprising the amino acid of SEQ ID NO: 8 and was measured and compared to the tpol value of an exemplary reference polymerase comprising the amino acid sequence of SEQ ID NO: 20. These kinetic parameters were evaluated using a stopped-flow assay wherein a mixture comprising an extendible dye-labeled primer:template duplex and test polymerase was mixed with a solution comprising terminally-labeled nucleotide tetraphosphates or terminally-labeled nucleotide hexaphosphates. These terminally-labeled nucleotides comprise terminal-phosphate-labeled nucleotides having an alkyl linker with a functional amine group attached to the dye. The fluorescence of the resulting mixture was monitored over time. Unless noted otherwise, all concentrations refer to the initial concentrations prior to mixing. […]
Each primer-template duplex (200 nM) was preincubated with test polymerase (660 nM) and to form an E.DNA binary complex. This binary complex was mixed with the cognate omega-labeled nucleoside tetraphosphate (ωdN4P; 14 μM) in a stopped-flow experiment, and the fluorescence at both 546 nm and 647 nm was monitored following mixing. The averaged stopped-flow fluorescence traces were fitted with the double exponential function of Equation (2) to extrapolate the tpol value of the test polymerase: […]

[2] = tested on: AF647-C6-dG6P and Alexa Fluor 546 dye-labeled primer-template duplex; test: Stopped-flow measurement of tpol (nucleotide incorporation kinetics); type: biochemical; parameters: unit not given here; settings: tpol = 1/kpol; 7 μM AF647-C6-dG6P, 330 nM polymerase, 100 nM template/primer duplex, 2 mM MnCl2
Method: In this example, the t−1 and tpol values of a Phi-29 polymerase comprising the amino acid sequence of SEQ ID NO: 1 and a modified B103 polymerase comprising the amino acid sequence of SEQ ID NO: 8 (referred to as “mB103 in the table below) and further including amino acid substitutions at various positions were measured using a stopped-flow procedure. The stopped-flow techniques for measuring tpol (1/kpol) followed the techniques described by MP Roettger (2008 Biochemistry 47:9718-9727; M. Bakhtina 2009 Biochemistry 48:3197-320).
Stopped-Flow Measurements of tpol
The template sequence (SEQ ID NO: 44) further included an Alexa Fluor 546 dye moiety bonded to the 5′ position of the template.
The kinetics of nucleotide incorporation by each polymerase was measured in an Applied Photophysics SX20 stopped-flow spectrometer by monitoring changes in fluorescence from the dye-labeled primer-template duplex complexed to enzyme, following the mixing of the enzyme-DNA complex with dye-labeled nucleotides. These dye-labeled nucleotides comprise terminal-phosphate-labeled nucleotides having an alkyl linker with a functional amine group attached to the dye, and have the general structure shown in FIG. 11. This structure includes a sugar bonded to a hexaphosphate chain at the 5′ carbon position, and to a nucleotide base (denoted as “N”). The terminal phosphate group of the hexaphosphate is linked to a 6-carbon linker, and the other end of the 6-carbon linker is attached to a dye moiety (denoted as “dye”), typically through an amide bond. In this example, the particular dye-labeled nucleotide added was a labeled nucleotide hexaphosphate comprising a guanine base at the N (base) position and an Alexa Fluor 647 (AF647) at the dye position, and is referred to herein as “AF647-C6-dG6P”.
The primer and template were annealed to form a dye-labeled primer-template duplex using standard methods. This duplex was preincubated with polymerase. The mixture included 330 nM recombinant DNA polymerase, 100 nM template/primer duplex in buffer (“reaction buffer”) comprising 50 mM Tris-HCl, pH 7.5, 50 mM NaCl, 4 mM DTT, 0.2% BSA, and 2 mM MnCl2. The dye-labeled nucleotide AF647-C6-dG6P was then added to a final concentration of 7 μM, and the resulting fluorescence was monitored over time.
The averaged (5 traces) stopped-flow fluorescence traces (>1.5 ms) were fitted with a double exponential equation (1) to extrapolate the rates of the nucleotide binding and product release, Fluorescence=A1*e^−k1*t+A2*e^−kpol*t+C (equation 1) where A1 and A2 represent corresponding fluorescence amplitudes, C is an offset constant, and k1 and kpol are the observed rate constants for the fast and slow phases of the fluorescence transition, respectively.

With “mB103 (SEQ ID: 8): B103 polymerase triple mutant with D166A, F383L and D384N” the estimated tpol values [1] was “comparable” and the tpol [2] was 14.
